Laboratory results reported in PubChem BioAssay AID1963959 (Molecular Pharmacology Branch, DTP, NCI, 2024).
pIC50: −log10 of the molar value.

Test system: T-47D spheroids with HUVEC/MSC, viability
Experiment: Anticancer human tumor T-47D cell line growth inhibition [PI3K];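 further: spheroids exposed to agents for seven days before reading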;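 on viability, T/C: percent of DMSO vehicle control luminescence so 100% = untreated growth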
Conditions: for pIC50: curve of first compound; for viability, T/C: stronger effect = lower value
Method in brief: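 Viability of mixed-cell spheroids was determined after exposure to pairwise combinations, one partner being inavolisib, alpelisib, duvelisib or copanlisib. Highest tested concentration matched clinical Cmax where known and 10 microM where not, descending in half-log steps.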

[1] = second compound 0.00316 µM, first compound 0.0316 µM
[2] = second compound 0.00316 µM, first compound 0.1 µM
[3] = second compound 0.00316 µM, first compound 0.316 µM
[4] = second compound 0.00316 µM, first compound 1 µM
[5] = second compound 0.00316 µM, first compound 3.16 µM
[6] = second compound 0.00316 µM, first compound 10 µM
[7] = second compound 0.01 µM, first compound 0.0316 µM
[8] = second compound 0.01 µM, first compound 0.1 µM
[9] = second compound 0.01 µM, first compound 0.316 µM
[10] = second compound 0.01 µM, first compound 1 µM
[11] = second compound 0.01 µM, first compound 3.16 µM
[12] = second compound 0.01 µM, first compound 10 µM
[13] = second compound 0.0316 µM, first compound 0.0316 µM
[14] = second compound 0.0316 µM, first compound 0.1 µM
[15] = second compound 0.0316 µM, first compound 0.316 µM
[16] = second compound 0.0316 µM, first compound 1 µM
[17] = second compound 0.0316 µM, first compound 3.16 µM
[18] = second compound 0.0316 µM, first compound 10 µM
[19] = second compound 0.1 µM, first compound 0.0316 µM
[20] = second compound 0.1 µM, first compound 0.1 µM
[21] = second compound 0.1 µM, first compound 0.316 µM
[22] = second compound 0.1 µM, first compound 1 µM
[23] = second compound 0.1 µM, first compound 3.16 µM
[24] = second compound 0.1 µM, first compound 10 µM
[25] = second compound 0.316 µM, first compound 0.0316 µM
[26] = second compound 0.316 µM, first compound 0.1 µM
[27] = second compound 0.316 µM, first compound 0.316 µM
[28] = second compound 0.316 µM, first compound 1 µM
[29] = second compound 0.316 µM, first compound 3.16 µM
[30] = second compound 0.316 µM, first compound 10 µM
[31] = second compound 1 µM, first compound 0.0316 µM
[32] = second compound 1 µM, first compound 0.1 µM
[33] = second compound 1 µM, first compound 0.316 µM
[34] = second compound 1 µM, first compound 1 µM
[35] = second compound 1 µM, first compound 3.16 µM
[36] = second compound 1 µM, first compound 10 µM

C#Cc1c(F)ccc2cc(O)cc(-c3ncc4c(N5CC6CCC(C5)N6)nc(OCC56CCCN5CC(F)C6)nc4c3F)c12 (stereo not given) + CC(Nc1ccc2c(c1)OCCn1cc(N3C(=O)OCC3C(F)F)nc1-2)C(N)=O was tested, and the pIC50 (second compound 0.00316 µM) was < 5.00, the pIC50 (second compound 0.01 µM) was < 5.00 and the pIC50 (second compound 0.0316 µM) was < 5.00. The pIC50 (second compound 0.1 µM) was < 5.00, the pIC50 (second compound 0.316 µM) was < 5.00 and the pIC50 (second compound 1 µM) was < 5.00. For the same compound, the viability, T/C [1] was 96.3%, the viability, T/C [2] was 85.3% and the viability, T/C [3] was 85.6%. For the same compound, the viability, T/C [4] was 78.3%, the viability, T/C [5] was 90.9% and the viability, T/C [6] was 84.1%. The viability, T/C [7] was 107%, the viability, T/C [8] was 82.3% and the viability, T/C [9] was 102%. The viability, T/C [10] was 100%, the viability, T/C [11] was 95.2% and the viability, T/C [12] was 92.9%. For the same compound, the viability, T/C [13] was 83.3%, the viability, T/C [14] was 77.8% and the viability, T/C [15] was 97.8%. The viability, T/C [16] was 79%, the viability, T/C [17] was 94.6% and the viability, T/C [18] was 89.1%. It also gave a viability, T/C [19] of 99.8%, a viability, T/C [20] of 83% and a viability, T/C [21] of 79%. For the same compound, the viability, T/C [22] was 88.6%, the viability, T/C [23] was 91.1% and the viability, T/C [24] was 81.4%. It also gave a viability, T/C [25] of 62.7%, a viability, T/C [26] of 70.7% and a viability, T/C [27] of 76.8%. For the same compound, the viability, T/C [28] was 59.9%, the viability, T/C [29] was 70.8% and the viability, T/C [30] was 61.3%. The viability, T/C [31] was 48.8%, the viability, T/C [32] was 55.3% and the viability, T/C [33] was 61.2%. The viability, T/C [34] was 43.7%, the viability, T/C [35] was 46.1% and the viability, T/C [36] was 62.5%.
With C=CC(=O)N1CCN(c2nc(=O)n(-c3c(C)ccnc3C(C)C)c3nc(-c4c(O)cccc4F)c(F)cc23)C(C)C1 (stereo not given) + CC(Nc1ccc2c(c1)OCCn1cc(N3C(=O)OCC3C(F)F)nc1-2)C(N)=O the pIC50 (second compound 0.00316 µM) was < 5.00, the pIC50 (second compound 0.01 µM) was < 5.00 and the pIC50 (second compound 0.0316 µM) was < 5.00. For the same compound, the pIC50 (second compound 0.1 µM) was < 5.00, the pIC50 (second compound 0.316 µM) was < 5.00 and the pIC50 (second compound 1 µM) was > 7.50. For the same compound, the viability, T/C [1] was 87.5%, the viability, T/C [2] was 103% and the viability, T/C [3] was 78.8%. It also gave a viability, T/C [4] of 86.3%, a viability, T/C [5] of 97.3% and a viability, T/C [6] of 113%. The viability, T/C [7] was 104%, the viability, T/C [8] was 67.8% and the viability, T/C [9] was 106%. The viability, T/C [10] was 84.8%, the viability, T/C [11] was 99.9% and the viability, T/C [12] was 92.1%. For the same compound, the viability, T/C [13] was 99%, the viability, T/C [14] was 84.8% and the viability, T/C [15] was 95.9%. For the same compound, the viability, T/C [16] was 98%, the viability, T/C [17] was 88.2% and the viability, T/C [18] was 88.3%. The viability, T/C [19] was 81.2%, the viability, T/C [20] was 83.6% and the viability, T/C [21] was 83.8%. The viability, T/C [22] was 98.5%, the viability, T/C [23] was 82.9% and the viability, T/C [24] was 96.8%. It also gave a viability, T/C [25] of 71.2%, a viability, T/C [26] of 73.3% and a viability, T/C [27] of 77%. The viability, T/C [28] was 74.5%, the viability, T/C [29] was 75.9% and the viability, T/C [30] was 79.2%. For the same compound, the viability, T/C [31] was 48.5%, the viability, T/C [32] was 47.2% and the viability, T/C [33] was 59%. The viability, T/C [34] was 54.2%, the viability, T/C [35] was 63.4% and the viability, T/C [36] was 67.2%.
CC(Cn1ccc(-c2ccc(C#N)c(Cl)c2)n1)NC(=O)c1cc(C(C)O)[nH]n1 (stereo not given) + CC(Nc1ccc2c(c1)OCCn1cc(N3C(=O)OCC3C(F)F)nc1-2)C(N)=O was tested, and the pIC50 (second compound 0.00316 µM) was < 5.00, the pIC50 (second compound 0.01 µM) was < 5.00 and the pIC50 (second compound 0.0316 µM) was < 5.00. The pIC50 (second compound 0.1 µM) was < 5.00, the pIC50 (second compound 0.316 µM) was < 5.00 and the pIC50 (second compound 1 µM) was 6.60. The viability, T/C [1] was 92.5%, the viability, T/C [2] was 91.2% and the viability, T/C [3] was 83.2%. The viability, T/C [4] was 79.1%, the viability, T/C [5] was 88.5% and the viability, T/C [6] was 59.3%. For the same compound, the viability, T/C [7] was 114%, the viability, T/C [8] was 85.7% and the viability, T/C [9] was 92.1%. It also gave a viability, T/C [10] of 73.5%, a viability, T/C [11] of 92.2% and a viability, T/C [12] of 63.2%. The viability, T/C [13] was 125%, the viability, T/C [14] was 98% and the viability, T/C [15] was 76.2%. The viability, T/C [16] was 83.2%, the viability, T/C [17] was 90.6% and the viability, T/C [18] was 62.7%. For the same compound, the viability, T/C [19] was 83.1%, the viability, T/C [20] was 76.5% and the viability, T/C [21] was 76.2%. It also gave a viability, T/C [22] of 72.1%, a viability, T/C [23] of 87.7% and a viability, T/C [24] of 67.2%. The viability, T/C [25] was 65.8%, the viability, T/C [26] was 65.7% and the viability, T/C [27] was 55.2%. The viability, T/C [28] was 57.3%, the viability, T/C [29] was 60.2% and the viability, T/C [30] was 53.5%. It also gave a viability, T/C [31] of 87.2%, a viability, T/C [32] of 56.4% and a viability, T/C [33] of 46.8%. The viability, T/C [34] was 46.1%, the viability, T/C [35] was 54.7% and the viability, T/C [36] was 41.4%.
For CC1(C)CCC(Nc2ncc(C(F)(F)F)c(-c3c[nH]c4c(P(C)(C)=O)c(C#N)ccc34)n2)CN1 (stereo not given) + CC(Nc1ccc2c(c1)OCCn1cc(N3C(=O)OCC3C(F)F)nc1-2)C(N)=O, the pIC50 (second compound 0.00316 µM) was < 5.00, the pIC50 (second compound 0.01 µM) was < 5.00 and the pIC50 (second compound 0.0316 µM) was 5.23. For the same compound, the pIC50 (second compound 0.1 µM) was 5.35, the pIC50 (second compound 0.316 µM) was > 7.50 and the pIC50 (second compound 1 µM) was > 7.50. The viability, T/C [1] was 66.4%, the viability, T/C [2] was 70% and the viability, T/C [3] was 59.1%. The viability, T/C [4] was 73.5%, the viability, T/C [5] was 76.9% and the viability, T/C [6] was 48.8%. The viability, T/C [7] was 72.3%, the viability, T/C [8] was 68.3% and the viability, T/C [9] was 67.5%. It also gave a viability, T/C [10] of 72.3%, a viability, T/C [11] of 82.4% and a viability, T/C [12] of 47.6%. For the same compound, the viability, T/C [13] was 65.4%, the viability, T/C [14] was 68.3% and the viability, T/C [15] was 60.2%. It also gave a viability, T/C [16] of 68.7%, a viability, T/C [17] of 67% and a viability, T/C [18] of 36.2%. It also gave a viability, T/C [19] of 62%, a viability, T/C [20] of 65.2% and a viability, T/C [21] of 46.3%. The viability, T/C [22] was 47.3%, the viability, T/C [23] was 61.4% and the viability, T/C [24] was 34.2%. For the same compound, the viability, T/C [25] was 53.1%, the viability, T/C [26] was 42.6% and the viability, T/C [27] was 37.8%. The viability, T/C [28] was 36.2%, the viability, T/C [29] was 40.4% and the viability, T/C [30] was 17.1%. For the same compound, the viability, T/C [31] was 40.8%, the viability, T/C [32] was 30.8% and the viability, T/C [33] was 29.7%. The viability, T/C [34] was 29.5%, the viability, T/C [35] was 26.4% and the viability, T/C [36] was 6.28%.
Cn1nccc1Nc1nccc(-c2ccn(C(CO)c3ccc(Cl)c(F)c3)c(=O)c2)n1 (stereo not given) + CC(Nc1ccc2c(c1)OCCn1cc(N3C(=O)OCC3C(F)F)nc1-2)C(N)=O was tested, and the pIC50 (second compound 0.00316 µM) was < 5.00, the pIC50 (second compound 0.01 µM) was < 5.00 and the pIC50 (second compound 0.0316 µM) was < 5.00. For the same compound, the pIC50 (second compound 0.1 µM) was < 5.00, the pIC50 (second compound 0.316 µM) was < 5.00 and the pIC50 (second compound 1 µM) was < 5.00. The viability, T/C [1] was 98.6%, the viability, T/C [2] was 97.4% and the viability, T/C [3] was 93.3%. The viability, T/C [4] was 96%, the viability, T/C [5] was 113% and the viability, T/C [6] was 109%. The viability, T/C [7] was 106%, the viability, T/C [8] was 92.8% and the viability, T/C [9] was 104%. The viability, T/C [10] was 106%, the viability, T/C [11] was 111% and the viability, T/C [12] was 99.6%. For the same compound, the viability, T/C [13] was 86.1%, the viability, T/C [14] was 85.2% and the viability, T/C [15] was 93.2%. It also gave a viability, T/C [16] of 99.7%, a viability, T/C [17] of 105% and a viability, T/C [18] of 85.7%. The viability, T/C [19] was 103%, the viability, T/C [20] was 100% and the viability, T/C [21] was 89.4%. The viability, T/C [22] was 92.9%, the viability, T/C [23] was 87% and the viability, T/C [24] was 92.3%. The viability, T/C [25] was 71.8%, the viability, T/C [26] was 71.3% and the viability, T/C [27] was 65.4%. The viability, T/C [28] was 67%, the viability, T/C [29] was 69.4% and the viability, T/C [30] was 71.3%. It also gave a viability, T/C [31] of 65.7%, a viability, T/C [32] of 60% and a viability, T/C [33] of 52%. It also gave a viability, T/C [34] of 47.4%, a viability, T/C [35] of 58.1% and a viability, T/C [36] of 57.1%.
